# Patent USRE36374E, “1,2,3-triazole and tetrazole substituted piperidine or tetrahydropyridine compounds useful as acetylcholine agonists” (priority 1987, dated 1999)
# Structures can show the parent of a compound that is named as a salt. Where two headings read alike, the source gives them in different places.
# Legend:
# [1] = biological target: central cholinergic receptors; test: 3H-oxotremorine-M (Oxo-M) displacement from rat brain homogenates; format: binding; settings: displacement of 3H-oxotremorine-M, pH 7.4, 40 min, 30° C
# Protocol: (§1) Affinity to central cholinergic receptors in vitro was measured as the ability of the compounds to displace ^3 H-oxotremorine-M (Oxo-M) from rat brain homogenates, while affinity to central muscarinic M-1-receptors in vitro was measured as the ability of the compounds to displace ^3 H-pirenzepin (Pz) from rat brain homogenates.
# ^3 H-oxotremorine M binding
# was performed essentially as described by Birdsdall et al., 1980. Briefly, rat brains were homogenized in 100 vol (w/v) 10 mM Na,K-phosphate buffer (pH 7.4) and aliquots incubated with ^3 H-oxotremorine M (84.9 Ci/m-mol, NEN) alone or in the presence of test compound in a total volume of 1.5 ml for 40 min. at 30° C. The reaction was stopped by adding 5 ml cold buffer and filtered through Whatman GF/B filters soaked previously in 0.1% polyethylenimin (Sigma) for minimum 30 min. The filters were washed once with the same volume of buffer, transferred to scintillation vials and extracted in scintillation fluid (Pico-fluor 15, Packard) for at least two hours before counted in a liquid scintillation spectrometer (Beckman LS 1800). Non-specific binding was estimated at 10 μM atropine and all estimations made in triplicate. At least two displacement curves were made for each compound tested.
# Birdsdall N. J. M., Hulme E. C., and Burgen A. S. V. (1980). "The Character of Muscarinic Receptors in Different Regions of the Rat Brain". Proc. Roy. […] London (Series B) 207, 1.
# [2] = biological target: T1, central muscarinic M-1-receptors (Rattus norvegicus, UniProt P08482); test: 3H-pirenzepine (Pz) displacement from rat brain homogenates; format: binding
# T1 sequence (P08482 1-460): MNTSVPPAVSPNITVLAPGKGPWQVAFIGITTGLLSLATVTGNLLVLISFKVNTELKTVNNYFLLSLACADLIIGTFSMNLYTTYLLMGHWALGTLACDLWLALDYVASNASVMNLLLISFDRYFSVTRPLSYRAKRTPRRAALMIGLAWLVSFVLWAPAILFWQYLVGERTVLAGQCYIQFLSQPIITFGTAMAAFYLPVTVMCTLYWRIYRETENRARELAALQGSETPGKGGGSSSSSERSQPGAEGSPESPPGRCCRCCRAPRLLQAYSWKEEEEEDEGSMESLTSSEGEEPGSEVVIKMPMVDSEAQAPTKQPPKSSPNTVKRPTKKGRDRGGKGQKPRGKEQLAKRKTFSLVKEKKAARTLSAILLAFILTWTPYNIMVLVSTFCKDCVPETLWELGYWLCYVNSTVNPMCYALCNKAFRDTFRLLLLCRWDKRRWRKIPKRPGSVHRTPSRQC
# Protocol: as §1
# was performed essentially as described by Watson et al., 1983, the conditions being very much the same as for ^3 H-oxotremorine binding, except that aliquots were incubated with 1.0 nM ^3 H-pirenzepine for 60 min. at 25° C. and that the reaction was stopped by direct filtration followed by 3 washes with 4 ml buffer.
# Watson, M., Yamamura, H. I., and Roeske, W. R. (1983). "A unique regulatory profile and regional distribution of ^3 H-pirenzepin binding in the rat provide evidence for distinct M1 and M2 muscarinic receptor subtypes". Life Sci. 32 (1983) 3001-3011.
# [3] = displacement of 1.0 nM 3H-pirenzepine, rat brain homogenates, 60 min, 25° C, read-out: Pz, IC50
Compound,IC50 [1] [nM],"IC50 [2, 3] [nM]",IC50 [2] [nM]
"Cn1nnnc1C1=CCCNC1 [Compound 9, 1-Methyl-5(1,2,5,6-tetrahydro-3-pyridyl)-2H-tetrazole, fumarate]",3200,27000,–
"Cn1nnc(C2CCCNC2)n1 (centres unmarked) [Compound 13, 2-Methyl-(3-piperidyl)-2H-tetrazole, hydrochloride]",47,–,3600
"CN1CCCC(c2nnn(C)n2)C1 (centres unmarked) [Compound 14, 2-Methyl-5-methyl-3-piperidyl)-2H-tetrazole, oxalate]",1700,7400,–
"CC(C)n1nnc(C2=CCCN(C)C2)n1 [Compound 16, 2-Isopropyl-5-(1-methyl-1,2,5,6-tetrahydro-3-pyridyl)-2H-tetrazole, fumarate]",120,130,–
"CCn1nnc(C2=CCCN(C)C2)n1 [Compound 20, 2-Ethyl-5-(1-methyl-1,2,5,6-tetrahydro-3-pyridyl)-2H-tetrazole, oxalate]",16,130,–
"C#CCn1nnc(C2=CCCNC2)n1 [Compound 22, 2-(2-Propynyl)-5-(1,2,5,6-tetrahydropyridyl)-2H-tetrazole, hydrochloride]",–,380,–
"C#CCn1nnc(C2CCCNC2)n1 (centres unmarked) [Compound 26, 2-(2-Propynyl)-5-(3-piperidyl)2H-tetrazole, hydrochloride]",44,–,400
"C#CCn1nnc(C2=CCC(C)NC2)n1 (centres unmarked) [Compound 36, 2-(2-Propynyl-5-(6-methyl-1,2,5,6-tetrahydro-3-pyridyl)-2H-tetrazole, hydrochloride]",390,250,–
"CC1=C(c2nnn(C)n2)CN(C)CC1 [Compound 38, 2-Methyl-5(1,4-dimethyl-1,2,5,6-tetrahydro-3-pyridyl)-2H-tetrazole, oxalate]",1000,1200,–
"Cc1cc(C2=CCCNC2)on1 [Compound 54, 3-Methyl-5(1,2,5,6-tetrahydro-3-pyridyl)-isoxazole, maleate]",230,4000,–
"Cc1cc(C2=CCCNC2)no1 [Compound 55, 5-Methyl-3-(1,2,5,6-tetrahydro-3-pyridyl)-isoxazole, hydrochloride]",1000,2500,–
"CN1CCC=C(c2ncn(C)n2)C1 [Compound 59, 1-Methyl-3(1-methyl-1,2,5,6-tetrahydro-3-pyridyl)-1,2,4-triazole, hemifumarate]",280,610,–
"Cn1cnc(C2=CCCNC2)n1 [Compound 60, 1-Methyl-3-(1,2,5,6-tetrahydro-3-pyridyl-1,2,4-triazole, dihydrobromide]",1400,4900,–
"Cc1nc(C2=CCCN(C)C2)nn1C [Compound 63, 1,5-Dimethyl-3-(1-methyl-1,2,5,6-tetraydro-3-pyridyl)-1,2,4-triazole, fumarate]",710,160,–
"Cc1nc(C2=CCCNC2)nn1C [Compound 64, 1,5Dimethyl-3-(1,2,5,6-tetrahydro-3-pyridyl)-1,2,4-triazole, dihydrobromide, dihydrate]",2100,2400,–
"CSc1n[nH]c(C2=CCCN(C)C2)n1 [Compound 67, 3-Methylthio-5-(1-methyl-1,2,5,6-tetrahydro-3-pyridyl)-1,2,4-triazole, fumarate]",1500,2000,–
"CN1CCC=C(c2cnn(C)n2)C1 [Compound 70, 2-Methyl-4-(1-methyl-1,2,5,6-tetrahydro-3-pyridyl)-1,2,3-triazole, 1.5 fumarate]",1.1,5.5,–
"Cn1ncc(C2=CCCNC2)n1 [Compound 72, 2-Methyl-4-(1,2,5,6-tetrahydro-3-pyridyl)-1,2,3-triazole, fumarate]",0.48,790,–
"Cc1cnc(C2=CCCN(C)C2)o1 [Compound 75, 5-Methyl-2-(1-methyl-1,2,5,6-tetraydro-3-pyridyl)-oxazole, oxalate]",57,370,–
"Cc1cnc(C2=CCCNC2)o1 [Compound 76, 5-Methyl-2-(1,2,5,6-tetrahydro-3-pyridyl)-oxazole, fumarate]",190,1300,–
"COc1cnc(C2=CCCN(C)C2)o1 [Compound 80, 5-Methoxy-2-(1-methyl-1,2,5,6-tetrahydro-3-pyridyl)-oxazol, oxalate]",–,1500,–
"COc1cnc(C2=CCCNC2)o1 [Compound 81, 5-Methoxy-2-(1,2,5,6-tetrahydro-3-pyridyl)-oxazole, 1.25 fumarate]",220,4200,–
"Cc1coc(C2=CCCN(C)C2)n1 [Compound 84, 4-Methyl-2-(1-methyl-1,2,5,6-tetrahydro-3-pyridyl)-oxazole, oxalate]",28,58,–
"Cc1coc(C2=CCCNC2)n1 [Compound 85, 4-Methyl-2-(1,2,5,6-tetrahydro-3-pyridyl)-oxazole, fumarate]",7.5,1400,–
"CN1CCC=C(C2=NC(C)(C)CO2)C1 [Compound 87, 4,4-Dimethyl-2-1-methyl-1,2,5,6-tetrahydro-3-pyridyl)-oxazoline, fumarate]",130,400,–

# Continued, in another order:
IC50 [1] [nM],"IC50 [2, 3] [nM]",Compound,IC50 [2] [nM]
6.3,2100,"Cn1nnc(C2=CCCNC2)n1 [Compound 8, 2-Methyl-5(1,2,5,6-tetrahydro-3-pyridyl)-2H-tetrazole, hydrobromide]",–
8.7,390,"CN1CCC=C(c2nnn(C)n2)C1 [Compound 10, 2-Methyl-5-(1-methyl-1,2,5,6-tetrahydro-3-pyridyl)2H-tetrazole]",–
280,480,"CC(C)n1nnc(C2=CCCNC2)n1 [Compound 17, 2-Isopropyl-5-(1,2,5,6-tetrahydro-3-pyridyl)-2H-tetrazole, hydrobromide]",–
32,1500,"CCn1nnc(C2=CCCNC2)n1 [Compound 19, 2-Ethyl-5-(1,2,5,6-tetraydro-3-pyridyl)-2H-tetrazole, hydrobromide]",–
140,1100,"C=C=Cn1nnc(C2=CCCNC2)n1 [Compound 23, 2-Allenyl-5-(1,2,5,6-tetrahydro-3-pyridyl)-2H-tetrazole, hydrochloride]",–
250,1400,"CC1CC=C(c2nnn(C)n2)CN1 (centres unmarked) [Compound 30, 2-Methyl-5-(6-methyl-1,2,5,6-tetrahydro-3-pyridyl)-2H-tetrazole, hydrobromide]",–
310,140,"CC1CC=C(c2nnn(C)n2)CN1C (centres unmarked) [Compound 31, 2-Methyl-5-(1,6-dimethyl-1,2,5,6-tetrahydro-3-pyridyl)-2H-tetrazole]",–
320,900,"CC1CC=C(c2nnn(C(C)C)n2)CN1 (centres unmarked) [Compound 33, 2-Isopropyl-5-(6-methyl-1,2,5,6-tetraydro-3-pyridyl)-2H-tetrazole, hydrobromide]",–
180,350,"CC1CC=C(c2nnn(C(C)C)n2)CN1C (centres unmarked) [Compound 34, 2-Isopropyl-5-(1,6-dimethyl-1,2,5,6-tetrahydro-3-pyridyl)-2H-tetrazole]",–
810,1500,"CC1=C(c2nnn(C)n2)CNCC1 [Compound 39, 2-Methyl-5-(4-methyl-1,2,5,6-tetrahydro-3-pyridyl)-2H-tetrazole, 0.75 oxalate]",–
98,280,"CC1C=C(c2nnn(C)n2)CNC1 (centres unmarked) [Compound 47, 2-Methyl-5-(5-methyl-1,2,5,6-tetrahydro-3-pyridyl)-2H-tetrazole, hydrobromide]",–
680,1800,"CC1C=C(c2nnn(C)n2)CN(C)C1 (centres unmarked) [Compound 48, 2-Methyl-5-(1,5-dimethyl-1,2,5,6-tetrahydro-3-pyridyl)-2H tetrazole, oxalate]",–
62,68,"C#CCn1nnc(C2=CC(C)CNC2)n1 (centres unmarked) [Compound 50, 2-(2-Propynyl)-5-(5-methyl-1,2,5,6-tetrahydro-3-pyridyl)-2H-tetrazole hydrochloride]",–
